For one data set, the system named is U-2 OS cells. The experiment in a line: Cell cycle analysis by flow cytometry. The format is cell-based, human. As to conditions: 1 µM, 24 h. As to the method:
After treatment with the compounds, cells were trypsinized and washed once in PBS. Cells were fixed for 1 h in ice-cold 70% ethanol, then washed once in PBS, centrifuged at 200 g and resuspended in a PBS buffer containing 100 µg/ml RNase A (Thermo Scientific) and 40 µg/ml propidium iodide (Life Technologies). DNA content was determined using a flow cytometer Attune^TM NxT (Thermofisher) and ten thousand events were collected in each run. The data were analysed using FCS Express 7 Pro software (De Novo).

On the set-up of data set [1]: method as in PMID 22305342. The conditions noted are these: cited from earlier work.
In the next data set the target is MmCLK1 (Mus musculus, UniProt P22518). The experiment in a line: ADP-Glo kinase assay. The data set is classed as biochemical, Mus musculus (Mm). As to conditions: for remaining activity at 1 µM: mean n = 2, % of maximum activity of DMSO control, read-out: % Residual activity at 1 μM CLK1; for Selectivity index CLK1/Haspin: IC50 CLK1/IC50 Haspin; for IC50: dose-response curve, each point in duplicate, read-out: Kinase inhibition (IC50) CLK1. As to the method: (§1) Kinase activities were determined using the ADP-Glo methodology (ADP-Glo Kinase Assay; Promega) according to the assay described by Nguyen et al.[32] except for MmCLK1. The later was assayed in the following buffer: 10 mM MgCl2, 1 mM EGTA, 1 mM DTT, 25 mM Tris-HCl pH 7.5, 50 µg/ml heparin, 0.15 mg/ml BSA, with 0.027 µg/µl of the following peptide: GRSRSRSRSRSR as substrate.
A general note: ADP-Glo first removes unused ATP, then detects ADP through luciferase.

In the next data set the test system is RPE1 cell line. The experiment in a line: Cell viability MTS assay, dose-response. The format is cell-based. As to conditions: Homo sapiens, RPE-1; 48 h, MTS assay in triplicate, doses up to 50 µM. Here is the method: (§2) HCT116 cells were cultured in McCoy’s medium. SH-SY5Y, MDA-MB231 and U-2 OS cells were cultured in Dulbecco's modified Eagle's medium (DMEM) and hTERT RPE-1 cells in DMEM:F12 medium. All media were supplemented with 10% foetal calf serum and cells were cultured at 37 °C in a 5% CO2 humidified atmosphere.
(§3) Cell viability was then assessed using the CellTiter96 AQueous cell proliferation assay from Promega according to the manufacturer’s instructions. Each experiment was done in triplicate and EC50 were determined from the dose-response curves according to the signal given by the control (0.1% DMSO) set at 100% viability using Prism GraphPad software.
(In general: Formazan colour is commonly taken as a measure of viable cells.)

A further data set has as its system U-2 OS cell line. The experiment in a line: Cell viability MTS assay, dose-response. The conditions noted are these: Homo sapiens, U2OS; 48 h, MTS assay in triplicate, doses up to 50 µM. The data set is classed as cell-based. Here is the method:
as §2, §3

The next data set concerns the target RnDYRK1A (Rattus norvegicus, UniProt Q63470). The experiment in a line: ADP-Glo kinase assay. The conditions noted are these: for Selectivity index DYRK/Haspin: IC50 DYRK1A/IC50 Haspin; for IC50: dose-response curve, each point in duplicate, read-out: Kinase inhibition (IC50) DYRK1A; for remaining activity: mean n = 2, % of maximum activity of DMSO control, read-out: % Residual activity at 1 μM DYRK1A. The data set is classed as biochemical, Rattus norvegicus (Rn). As to the method:
as §1

Another data set addresses HsPIM1 (Homo sapiens, UniProt P11309). The experiment in a line: ADP-Glo kinase assay. The data set is classed as biochemical, Homo sapiens (Hs). As to conditions: mean n = 2, % of maximum activity of DMSO control, read-out: % Residual activity at 1 μM PIM1. Here is the method:
as §1

In the next data set the target is T1, HsHaspin (Homo sapiens, UniProt Q8TF76).
T1 sequence (Q8TF76 1-798): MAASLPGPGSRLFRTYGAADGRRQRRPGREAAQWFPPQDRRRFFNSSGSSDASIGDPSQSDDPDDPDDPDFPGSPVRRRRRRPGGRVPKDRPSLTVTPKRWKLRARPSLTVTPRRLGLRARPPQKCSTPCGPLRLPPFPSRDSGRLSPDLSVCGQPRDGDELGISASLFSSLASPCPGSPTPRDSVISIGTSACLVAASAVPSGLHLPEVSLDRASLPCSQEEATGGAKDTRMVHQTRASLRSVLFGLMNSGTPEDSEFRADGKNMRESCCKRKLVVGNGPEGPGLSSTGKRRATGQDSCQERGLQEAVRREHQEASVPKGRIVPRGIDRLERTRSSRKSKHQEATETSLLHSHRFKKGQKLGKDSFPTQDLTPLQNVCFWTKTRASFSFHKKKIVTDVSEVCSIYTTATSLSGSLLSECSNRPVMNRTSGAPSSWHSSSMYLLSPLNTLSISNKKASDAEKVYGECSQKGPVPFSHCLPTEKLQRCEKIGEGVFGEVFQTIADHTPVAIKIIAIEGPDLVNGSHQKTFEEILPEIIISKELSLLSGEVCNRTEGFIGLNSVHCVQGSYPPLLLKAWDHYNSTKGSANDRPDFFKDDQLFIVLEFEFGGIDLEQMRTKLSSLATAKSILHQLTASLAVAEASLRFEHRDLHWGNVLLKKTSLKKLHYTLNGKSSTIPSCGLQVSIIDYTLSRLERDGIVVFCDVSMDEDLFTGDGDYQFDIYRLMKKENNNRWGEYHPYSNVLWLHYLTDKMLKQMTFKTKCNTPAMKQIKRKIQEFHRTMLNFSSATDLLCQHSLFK
The experiment in a line: ADP-Glo kinase assay. The data set is classed as biochemical, Homo sapiens (Hs). As to conditions: for remaining activity at 1 µM: mean n = 2, % of maximum activity of DMSO control, read-out: % Residual activity at 1 μM Haspin; for IC50: dose-response curve, each point in duplicate, read-out: Kinase inhibition (IC50) Haspin. As to the method: as §1

The next data set addresses HsCdk2/Cyc A (Homo sapiens, UniProt P24941). The experiment in a line: ADP-Glo kinase assay. The format is biochemical, Homo sapiens (Hs). The conditions noted are these: mean n = 2, % of maximum activity of DMSO control, read-out: % Residual activity at 1 μM CDK2. As to the method: as §1
The target in a further data set is HsCdk5/p25 (Homo sapiens, UniProt Q00535). The experiment in a line: ADP-Glo kinase assay. The format is biochemical, Homo sapiens (Hs). As to conditions: mean n = 2, % of maximum activity of DMSO control, read-out: % Residual activity at 1 μM CDK5. As to the method: as §1
Another data set addresses HsCdk9/Cyc E (Homo sapiens, UniProt P50750). The experiment in a line: ADP-Glo kinase assay. The data set is classed as biochemical, Homo sapiens (Hs). As to conditions: mean n = 2, % of maximum activity of DMSO control, read-out: % Residual activity at 1 μM CDK9. Here is the method:
as §1

For another data set, the target named is HsGSK3β (Homo sapiens, UniProt P49841). The experiment in a line: ADP-Glo kinase assay. The data set is classed as biochemical, Homo sapiens (Hs). The conditions noted are these: mean n = 2, % of maximum activity of DMSO control, read-out: % Residual activity at 1 μM GSK3β. Here is the method: as §1
Data set [2] concerns U-2 OS, HCT116, MDA-MB231, SH-SY5Y and RPE-1 cell lines. The experiment in a line: Cell viability primary screen at 25 μM. The format is cell-based, human. As to conditions: 48 h. Here is the method:
as §2, §3

Sequence of MmCLK1 (P22518 whole entry): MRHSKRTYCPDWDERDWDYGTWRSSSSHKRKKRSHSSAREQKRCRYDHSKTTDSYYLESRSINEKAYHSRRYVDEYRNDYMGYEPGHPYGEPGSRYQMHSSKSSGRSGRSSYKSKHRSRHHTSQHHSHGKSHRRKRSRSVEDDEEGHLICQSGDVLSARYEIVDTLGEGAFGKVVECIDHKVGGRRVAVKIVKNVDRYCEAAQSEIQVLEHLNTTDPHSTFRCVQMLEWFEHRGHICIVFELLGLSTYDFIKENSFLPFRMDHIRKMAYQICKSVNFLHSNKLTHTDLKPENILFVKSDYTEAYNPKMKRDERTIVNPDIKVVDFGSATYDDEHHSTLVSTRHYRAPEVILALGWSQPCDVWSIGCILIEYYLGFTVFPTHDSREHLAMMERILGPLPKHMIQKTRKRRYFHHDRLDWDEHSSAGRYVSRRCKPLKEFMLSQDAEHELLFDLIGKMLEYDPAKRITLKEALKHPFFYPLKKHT
Sequence of HsCdk5/p25 (Q00535 whole entry): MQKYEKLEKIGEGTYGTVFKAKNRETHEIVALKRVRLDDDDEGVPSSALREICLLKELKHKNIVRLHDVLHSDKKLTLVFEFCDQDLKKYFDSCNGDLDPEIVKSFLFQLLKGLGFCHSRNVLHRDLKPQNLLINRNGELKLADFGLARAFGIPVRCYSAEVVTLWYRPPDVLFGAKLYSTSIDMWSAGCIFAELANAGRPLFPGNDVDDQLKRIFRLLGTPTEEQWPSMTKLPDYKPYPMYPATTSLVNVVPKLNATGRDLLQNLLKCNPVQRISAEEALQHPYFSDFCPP
Sequence of HsCdk5/p25 (Q15078 99-307 partner limits assumed): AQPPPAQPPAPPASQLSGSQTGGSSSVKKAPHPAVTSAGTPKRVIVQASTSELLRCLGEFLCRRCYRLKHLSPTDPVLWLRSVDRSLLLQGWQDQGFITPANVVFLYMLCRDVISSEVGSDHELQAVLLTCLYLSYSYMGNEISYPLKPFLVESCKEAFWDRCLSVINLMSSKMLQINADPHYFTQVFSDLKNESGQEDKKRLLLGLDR
Sequence of HsPIM1 (P11309 whole entry): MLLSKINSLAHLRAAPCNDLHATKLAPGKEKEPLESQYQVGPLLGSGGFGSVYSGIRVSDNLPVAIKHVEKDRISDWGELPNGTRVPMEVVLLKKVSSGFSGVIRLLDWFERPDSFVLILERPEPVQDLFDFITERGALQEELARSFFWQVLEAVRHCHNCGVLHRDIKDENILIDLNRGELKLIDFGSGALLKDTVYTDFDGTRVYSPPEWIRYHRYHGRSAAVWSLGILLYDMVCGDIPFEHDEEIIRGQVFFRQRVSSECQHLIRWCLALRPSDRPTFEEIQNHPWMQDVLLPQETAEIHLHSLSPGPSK
Sequence of HsGSK3β (P49841 whole entry): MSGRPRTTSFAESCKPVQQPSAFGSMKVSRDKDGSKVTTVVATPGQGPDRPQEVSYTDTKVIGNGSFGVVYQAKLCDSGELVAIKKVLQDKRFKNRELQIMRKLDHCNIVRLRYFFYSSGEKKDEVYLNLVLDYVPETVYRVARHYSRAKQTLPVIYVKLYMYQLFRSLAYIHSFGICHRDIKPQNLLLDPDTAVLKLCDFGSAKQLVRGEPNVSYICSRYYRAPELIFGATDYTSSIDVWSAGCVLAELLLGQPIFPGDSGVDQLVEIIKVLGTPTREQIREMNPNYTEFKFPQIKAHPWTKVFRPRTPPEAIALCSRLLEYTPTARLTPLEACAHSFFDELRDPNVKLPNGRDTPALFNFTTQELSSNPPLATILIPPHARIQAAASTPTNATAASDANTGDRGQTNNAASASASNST
Sequence of HsCdk9/Cyc E (P50750 whole entry): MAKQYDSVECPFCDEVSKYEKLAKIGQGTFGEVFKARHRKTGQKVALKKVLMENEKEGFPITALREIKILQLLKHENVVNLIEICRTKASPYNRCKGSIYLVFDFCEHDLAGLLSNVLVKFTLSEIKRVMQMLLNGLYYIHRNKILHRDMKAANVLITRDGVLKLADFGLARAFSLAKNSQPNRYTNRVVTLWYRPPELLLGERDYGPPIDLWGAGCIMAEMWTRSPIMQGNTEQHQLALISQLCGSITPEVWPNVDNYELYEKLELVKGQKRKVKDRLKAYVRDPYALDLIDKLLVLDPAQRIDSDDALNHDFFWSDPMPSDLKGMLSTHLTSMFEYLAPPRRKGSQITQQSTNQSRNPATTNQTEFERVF
Sequence of HsCdk9/Cyc E (O60563 whole entry partner): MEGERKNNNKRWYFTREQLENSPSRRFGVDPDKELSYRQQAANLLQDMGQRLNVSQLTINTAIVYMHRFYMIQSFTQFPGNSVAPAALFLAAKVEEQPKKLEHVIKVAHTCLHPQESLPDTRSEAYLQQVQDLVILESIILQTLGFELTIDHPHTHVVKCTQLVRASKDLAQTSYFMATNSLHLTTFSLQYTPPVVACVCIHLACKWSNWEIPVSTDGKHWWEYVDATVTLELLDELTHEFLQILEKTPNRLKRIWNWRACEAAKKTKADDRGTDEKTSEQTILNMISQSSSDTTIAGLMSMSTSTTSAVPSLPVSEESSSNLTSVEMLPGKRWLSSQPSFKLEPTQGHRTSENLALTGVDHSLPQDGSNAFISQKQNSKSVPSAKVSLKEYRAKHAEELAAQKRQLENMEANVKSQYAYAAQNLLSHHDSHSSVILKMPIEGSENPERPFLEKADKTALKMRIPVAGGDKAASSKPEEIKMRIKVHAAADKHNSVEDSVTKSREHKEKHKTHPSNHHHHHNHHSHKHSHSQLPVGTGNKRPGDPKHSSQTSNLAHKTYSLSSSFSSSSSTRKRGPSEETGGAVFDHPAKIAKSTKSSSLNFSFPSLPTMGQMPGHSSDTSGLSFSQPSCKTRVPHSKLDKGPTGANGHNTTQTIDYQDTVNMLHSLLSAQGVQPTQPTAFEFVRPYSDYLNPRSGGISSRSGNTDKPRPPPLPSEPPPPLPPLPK

Turning to `CCCNc1ccc2ncc(-c3ccc4[nH]ncc4c3)n2n1` [CHR-6494, reference compound], in the data set on U-2 OS cells (DMSO control 6%), the “% of cycling cells G2/M” value turned out to be 17%. In the data set with U-2 OS cells (DMSO control 44%), the “% of cycling cells S” value is 38%. In the data set on U-2 OS cells (DMSO control 50%), the “% of cycling cells G1” value is reported as 45%.
Consider `O=c1oc2ccc(O)cc2c2c1[nH]c1ccccc12` [Compound 1a], for which, in data set [1], the “Stability in basic media” value is “instability in basic media”.
Regarding `O=c1oc2ccc(O)cc2c2c1[nH]c1cc(O)ccc12` [Compound 1b], the “Stability in basic media” value in data set [1] is “instability in basic media”.
Broadly, the IC50 is the midpoint of a concentration-inhibition curve. As usually defined, the EC50 is the concentration needed to bring the measured effect to its halfway point. Higher therefore signals a need for much substance. As usually defined, the melting point is the temperature of the solid-liquid transition. `COc1ccc2[nH]c3c(=O)[nH]c4ccc(N)cc4c3c2c1` [Compound 56, 2-Amino-10-methoxy-5,7-dihydro-6H-indolo[2,3-c]quinolin-6-one] came in with a melting point of over 250 °C. On MmCLK1, the remaining activity at 1 µM was found to be 3%, the “Selectivity index CLK1/Haspin” value was determined as 15 and the IC50 came out at 213 nM. The EC50 with RPE1 cell line is over 25 µM. Moreover, the EC50 in the data set on U-2 OS cell line is over 25 µM. For the same molecule, on RnDYRK1A, the “Selectivity index DYRK/Haspin” value is 16, the IC50 was 226 nM and the remaining activity was 7%. In addition, the remaining activity at 1 µM on HsPIM1 is 65%. Also, on HsHaspin, the remaining activity at 1 µM is 2% and the IC50 worked out at 14 nM. In addition, the remaining activity at 1 µM at HsCdk2/Cyc A came out at 72%. The remaining activity at 1 µM at HsCdk5/p25 was determined as 79%. In addition, the remaining activity at 1 µM on HsCdk9/Cyc E was 37%. On HsGSK3β, the remaining activity at 1 µM was determined as 39%. Besides, the “Effect on cell viability, primary screen” value in data set [2] (all tested cell lines) is “little to no effect”.
Consider `O=c1[nH]c2ccc(O)cc2c2c1[nH]c1ccc(F)cc12` [Compound 61, 10-Fluoro-2-Hydroxy-5,7-dihydro-6H-indolo [2,3-c]quinolin-6-one], for which the melting point was in the range of 240 to 243 °C. Further, at MmCLK1, the remaining activity at 1 µM was determined as 2%, the “Selectivity index CLK1/Haspin” value came out at 16 and the IC50 came to 78 nM. The molecule also came in with an EC50 in the data set on RPE1 cell line of 19.1 µM. In the data set with U-2 OS cell line, this molecule showed an EC50 of 8.7 µM. Moreover, on RnDYRK1A, the “Selectivity index DYRK/Haspin” value worked out at 21, the IC50 amounted to 104 nM and the remaining activity turned out to be 9%. Also, the remaining activity at 1 µM on HsPIM1 was 38%. Further, on HsHaspin, the remaining activity at 1 µM amounted to 0% and the IC50 amounted to 5 nM. The remaining activity at 1 µM at HsCdk2/Cyc A came to 57%. Besides, the remaining activity at 1 µM on HsCdk5/p25 is 91%. Further, the remaining activity at 1 µM at HsCdk9/Cyc E was 41%. Moreover, the remaining activity at 1 µM at HsGSK3β was 71%. The “Reduction of cell viability compared to the DMSO control” value in data set [2] was at least 75%.

The values above are taken from article PMC9186362, “Design and biological evaluation of substituted 5,7-dihydro-6H-indolo[2,3-c]quinolin-6-one as novel selective Haspin inhibitors” (Journal of Enzyme Inhibition and Medicinal Chemistry, 2022).
